According to US20240316051A1, “A PHARMACEUTICAL COMBINATION AND USE THEREOF” (Ascentage Pharma (Suzhou) Co., Ltd., priority 2021, published 2024):

What follows are molecules tested against T1, EED (1-441)-His protein (Homo sapiens, UniProt O75530) (assay: EED-H3K27Me3 peptide competition binding assay by AlphaScreen). Conditions: Table 4A, read-out: Alpha screen.
T1 construct: 20 nM EED (1-441)-His protein
Description: EED-H3K27Me3 Peptide Competition Binding Assay by AlphaScreen (α-Screen):
The compounds at each concentration (2.5 μl of each) were transferred into a 384-well Perkin Elmer OptiPlate-384 white plates. 5 μl of solutions containing 20 nM EED (1-441)-His protein in the buffer (25 mM HEPES, pH 8, 0.02% Tween-20, 0.5% BSA) were added to the wells and then incubated with compound for 15 min. 2.5 μl of solutions containing 20 nM biotin-H3K27Me3 (19-33) peptide in the buffer (25 mM HEPES, pH 8, 0.02% Tween-20, 0.5% BSA) were added to the wells and then incubated with compound for 30 min. AlphaScreen detection beads mix was prepared immediately before use by mixing nickel chelate acceptor beads and streptavidin donor beads in a 1:1 ratio (Perkin Elmer, Product No. 6760619C/M/R) into the buffer described above. Then 10 μl of the detection beads mix was added to the plate and incubated in the dark at RT for 1 h. The final concentration of donor and acceptor beads was 10 μg/ml for each. Plates were read on CLARIOStar plate reader (BMG Labtech) using the AlphaScreen setting adapted for optimal signal detection with a 615 nm filter, after sample excitation at 680 nm. The emission signal at 615 nm was used to quantify compound inhibition. AlphaScreen signals were normalized based on the reading coming from the positive (maximum signal control) and negative controls (minimum signal control) to give percentage of activities left. The data were then fit to a dose response equation to get the IC50 values.

T1 sequence (O75530 whole entry): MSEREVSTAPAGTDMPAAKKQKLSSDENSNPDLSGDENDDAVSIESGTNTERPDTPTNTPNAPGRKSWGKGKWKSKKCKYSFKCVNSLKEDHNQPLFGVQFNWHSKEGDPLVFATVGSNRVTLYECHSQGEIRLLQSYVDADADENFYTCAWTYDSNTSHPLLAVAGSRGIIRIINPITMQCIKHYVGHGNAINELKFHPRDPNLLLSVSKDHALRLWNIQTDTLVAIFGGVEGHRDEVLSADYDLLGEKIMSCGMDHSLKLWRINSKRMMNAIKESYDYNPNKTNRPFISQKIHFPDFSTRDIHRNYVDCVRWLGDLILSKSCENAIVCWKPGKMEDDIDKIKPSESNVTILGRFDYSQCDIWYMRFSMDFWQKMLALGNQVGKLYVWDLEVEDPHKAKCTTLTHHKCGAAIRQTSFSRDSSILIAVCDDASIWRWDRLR

SMILES	IC50 [nM]
CC1(O)CC(CN2Cc3nc(C(F)(F)F)ccc3-c3cnc(NCc4c(F)ccc5c4CCO5)n4cnc(c34)C2=O)C1 (stereo not shown) [Compound 47, 12-(((5-fluoro-2,3-dihydrobenzofuran-4-yl)methyl)amino)-4-((3-hydroxy-3-methylcyclobutyl)methyl)-7-(trifluoromethyl)-4,5-dihydro-3H-2,4,6,11,12a-pentaazabenzo[4,5]cycloocta[1,2,3-cd]inden-3-one]	0.91
CC(C)(O)CN1Cc2cc(C(F)(F)F)ncc2-c2cnc(NCc3c(F)ccc4c3CCO4)n3cnc(c23)C1=O [Compound 48, 12-(((5-fluoro-2,3-dihydrobenzofuran-4-yl)methyl)amino)-4-(2-hydroxy-2-methylpropyl)-7-(trifluoro-methyl)-4,5-dihydro-3H-2,4,8,11,12a-pentaaza-benzo[4,5]cycloocta[1,2,3-cd]inden-3-one]	1.65
CC1(O)CC(CN2Cc3cc(C(F)(F)F)ncc3-c3cnc(NCc4c(F)ccc5c4CCO5)n4cnc(c34)C2=O)C1 (stereo not shown) [Compound 49, 12-(((5-fluoro-2,3-dihydrobenzofuran-4-yl)methyl)amino)-4-((3-hydroxy-3-methylcyclobutyl)methyl)-7-(trifluoromethyl)-4,5-dihydro-3H-2,4,8,11,12a-pentaazabenzo[4,5]cycloocta[1,2,3-cd]inden-3-one]	1.81
Cc1ccc2c(n1)CN(CC1CC(C)(O)C1)C(=O)c1ncn3c(NCc4c(F)ccc5c4CCO5)ncc-2c13 (stereo not shown) [Compound 50, 12-(((5-fluoro-2,3-dihydrobenzofuran-4-yl)methyl)amino)-4-((3-hydroxy-3-methylcyclobutyl)methyl)-7-methyl-4,5-dihydro-3H-2,4,6,11,12a-pentaaza benzo[4,5]cycloocta[1,2,3-cd]inden-3-one]	1.16
O=C1c2ncn3c(NCc4c(F)ccc5c4CCO5)ncc(c23)-c2ccc(C(F)(F)F)nc2CN1C1CCOCC1 [Compound 51, 12-(((5-fluoro-2,3-dihydrobenzofuran-4-yl)methyl)amino)-4-(tetrahydro-2H-pyran-4-yl)-7-(trifluoromethyl)-4,5-dihydro-3H-2,4,6,11, 12a-pentaazabenzo [4,5]cycloocta[1,2,3-cd]inden-3-one]	0.7
O=C1c2ncn3c(NCc4c(F)ccc5c4CCO5)ncc(c23)-c2ccc(C(F)(F)F)nc2CN1CC1CCOC1 (stereo not shown) [Compound 52, 12-(((5-fluoro-2,3-dihydrobenzofuran-4-yl)methyl)amino)-4-((tetrahydrofuran-3-yl)methyl)-7-(trifluoro-methyl)-4,5-dihydro-3H-2,4,6,11,12a-pentaaza benzo[4,5]cycloocta[1,2,3-cd]inden-3-one]	0.7
Cn1ncc2c1CNC(=O)c1ncn3c(NCc4c(F)ccc5c4CCO5)ncc-2c13 [Compound 53, 11-(((5-fluoro-2,3-dihydrobenzofuran-4-yl)methyl)amino)-6-methyl-5,6-dihydro-2,4,6,7,10,11a-hexaazacyclopenta[4,5]cycloocta[1,2,3-cd]inden-3(4H)-one]	3.96
Cn1cc2c(n1)COC(=O)c1ncn3c(NCc4c(F)ccc5c4CCO5)ncc-2c13 [Compound 54, 11-(((5-fluoro-2,3-dihydrobenzofuran-4-yl)methyl)amino)-7-methyl-5,7-dihydro-3H-4-oxa-2,6,7,10, 11a-pentaazacyclopenta[4,5]cycloocta[1,2,3-cd] inden-3-one]	0.95
O=C1c2ncn3c(NCc4c(F)ccc5c4CCO5)ncc(c23)-c2ccc(C(F)(F)F)nc2CN1CC1CC1 [Compound 55, 4-(cyclopropylmethyl)-12-(((5-fluoro-2,3-dihydrobenzofuran-4-yl)methyl)amino)-7-(trifluoromethyl)-4,5-dihydro-3H-2,4,6,11,12a-pentaazabenzo[4,5] cycloocta[1,2,3-cd]inden-3-one]	2.14
Cc1nn(C)c2c1-c1cnc(NCc3c(F)ccc4c3CCO4)n3cnc(c13)C(=O)N(C1CC1)C2 [Compound 56, 4-cyclopropyl-11-(((5-fluoro-2,3-dihydrobenzo-furan-4-yl)methyl)amino)-6,8-dimethyl-5,6-dihydro-2,4,6,7,10,11a-hexaazacyclopenta[4,5]cycloocta [1,2,3-cd]inden-3(4H)-one]	4.49
COCCN1Cc2nc(C(F)(F)F)ccc2-c2cnc(NCc3c(F)ccc4c3CCO4)n3cnc(c23)C1=O [Compound 57, 12-(((5-fluoro-2,3-dihydrobenzofuran-4-yl)methyl)amino)-4-(2-methoxyethyl)-7-(trifluoromethyl)-4,5-dihydro-3H-2,4,6,11,12a-pentaazabenzo[4,5] cycloocta[1,2,3-cd]inden-3-one]	4.2
CC(C)(O)CN1Cc2nc(C(F)(F)F)ccc2-c2cnc(NCc3c(F)ccc4c3CCO4)n3cnc(c23)C1=O [Compound 58, 12-(((5-fluoro-2,3-dihydrobenzofuran-4-yl)methyl)amino)-4-(2-hydroxy-2-methylpropyl)-7-(trifluoro-methyl)-4,5-dihydro-3H-2,4,6,11,12a-pentaazabenzo [4,5]cycloocta[1,2,3-cd]inden-3-one]	2.74
CC(C)N1Cc2nc(C(F)(F)F)ccc2-c2cnc(NCc3c(F)ccc4c3CCO4)n3cnc(c23)C1=O [Compound 59, 12-(((5-fluoro-2,3-dihydrobenzofuran-4-yl)methyl)amino)-4-isopropyl-7-(trifluoromethyl)-4,5-dihydro-3H-2,4,6,11,12a-pentaazabenzo[4,5]cycloocta [1,2,3-cd]inden-3-one]	2.14
O=C1c2ncn3c(NCc4c(F)ccc5c4CCO5)ncc(c23)-c2ccc(C(F)(F)F)cc2CN1CCF [Compound 61, 12-(((5-fluoro-2,3-dihydrobenzofuran-4-yl)methyl)amino)-4-(2-fluoroethyl)-7-(trifluoromethyl)-4,5-dihydro-3H-2,4,11,12a-tetraazabenzo[4,5] cycloocta[1,2,3-cd]inden-3-one]	1.19
CC(C)(F)CN1Cc2cc(C(F)(F)F)ccc2-c2cnc(NCc3c(F)ccc4c3CCO4)n3cnc(c23)C1=O [Compound 62, 12-(((5-fluoro-2,3-dihydrobenzofuran-4-yl)methyl)amino)-4-(2-fluoro-2-methylpropyl)-7-(trifluoromethyl)-4,5-dihydro-3H-2,4, 11,12a-tetraazabenzo [4,5]cycloocta[1,2,3-cd]inden-3-one]	1.44
CC(F)(F)CN1Cc2cc(C(F)(F)F)ccc2-c2cnc(NCc3c(F)ccc4c3CCO4)n3cnc(c23)C1=O [Compound 63, 4-(2,2-difluoropropyl)-12-(((5-fluoro-2,3-dihydrobenzofuran-4-yl)methyl)amino)-7-(trifluoromethyl)-4,5-dihydro-3H-2,4,11,12a-tetraazabenzo[4,5] cycloocta[1,2,3-cd]inden-3-one]	1.89
O=C1c2ncn3c(NCc4c(F)ccc5c4CCO5)ncc(c23)-c2ccc(C(F)(F)F)cc2CN1CC1CCOCC1 [Compound 66, 12-(((5-fluoro-2,3-dihydrobenzofuran-4-yl)methyl)amino)-4-((tetrahydro-2H-pyran-4-yl)methyl)-7-(trifluoromethyl)-4,5-dihydro-3H-2,4,11,12a-tetra-azabenzo[4,5]cycloocta[1,2,3-cd]inden-3-one]	3.61
O=C1c2ncn3c(NCc4c(F)ccc5c4CCO5)ncc(c23)-c2ccc(C(F)(F)F)cc2CN1C1CC1 [Compound 67, 4-cyclopropyl-12-(((5-fluoro-2,3-dihydrobenzo-furan-4-yl)methyl)amino)-7-(trifluoromethyl)-4,5-dihydro-3H-2,4,11,12a-tetraazabenzo[4,5]cycloocta [1,2,3-cd]inden-3-one]	2.87
O=C1c2ncn3c(NCc4c(F)ccc5c4CCO5)ncc(c23)-c2ccc(C(F)(F)F)cc2CN1CC1COCCO1 (stereo not shown) [Compound 68, 4-((1,4-dioxan-2-yl)methyl)-12-(((5-fluoro-2,3-dihydrobenzofuran-4-yl)methyl)amino)-7-(trifluoro-methyl)-4,5-dihydro-3H-2,4,11,12a-tetraazabenzo [4,5]cycloocta[1,2,3-cd]inden-3-one]	3.86
COc1cccc(F)c1CNc1ncc2c3c(ncn13)C(=O)N(C1CC1)Cc1nc(C(F)(F)F)ccc1-2 [Compound 69, 4-cyclopropyl-12-((2-fluoro-6-methoxybenzyl)amino)-7-(trifluoromethyl)-4,5-dihydro-3H-2,4,6, 11,12a-pentaazabenzo[4,5]cycloocta[1,2,3-cd] inden-3-one]	19.8
COc1cccc(F)c1CNc1ncc2c3c(ncn13)C(=O)N(C1CC1)Cc1cc(C(F)(F)F)ncc1-2 [Compound 70, 4-cyclopropyl-12-((2-fluoro-6-methoxybenzyl)amino)-7-(trifluoromethyl)-4,5-dihydro-3H-2,4,8, 11,12a-pentaazabenzo[4,5]cycloocta[1,2,3-cd] inden-3-one]	> 100
COc1cccc(F)c1CNc1ncc2c3c(ncn13)C(=O)N(C(C)C)Cc1nc(C(F)(F)F)ccc1-2 [Compound 71, 12-((2-fluoro-6-methoxybenzyl)amino)-4-isopropyl-7-(trifluoromethyl)-4,5-dihydro-3H-2,4,6,11,12a-pentaazabenzo[4,5]cycloocta[1,2,3-cd]inden-3-one]	8.94
